Assay results published in patent US10633375B2, “Oxopicolinamide derivative, preparation method therefor and pharmaceutical use thereof” (Jiangsu Hengrui Medicine Co., Ltd., priority 2016, dated 2020).

Target: Coagulation Factor XIa protease (Homo sapiens (Human), UniProt P03951)
Assay: Inhibition of Factor XIa detected by absorption photometry
Type: biochemical
Details: absorbance at 405 nm, 10 minutes at 37° C.
Method: Test Example 1: Biological Activity of the Compounds of the Present Invention on
The Inhibition of Factor XIa Detected by Absorption Photometry
1. Experimental Materials
Enzyme: Coagulation Factor XIa protease (Abcam, Art. No ab62411)
Substrate: Coagulation Factor XIa specific substrate (HYPHEN1310 med, Art. No. Biophen cs-21(66))
2. Experimental Procedure
20 mM of test compound dissolved in 100% DMSO was diluted to 200, 20, 2, 0.2, 0.02, 0.002 μM with 100% DMSO; 1 μl of the compound was added to each well in a 384-well plate, blank and control wells were replaced with DMSO. The plate was centrifuged to remove the compound to the bottom. 10 μl (2.5 μg/ml) of FXIa enzyme solution was added to each well, and 10 μl of buffer was added to the blank well. The plate was centrifuged to remove the enzyme solution to the bottom.
Finally, 10 μl of 2 mM substrate were added to each well, and the plate was centrifuged to remove the substrate solution to the bottom.
The plate was incubated for 10 minutes at 37° C.; and then the absorbance was measured at 405 nm.

Sequence of Coagulation Factor XIa protease (P03951 388-625): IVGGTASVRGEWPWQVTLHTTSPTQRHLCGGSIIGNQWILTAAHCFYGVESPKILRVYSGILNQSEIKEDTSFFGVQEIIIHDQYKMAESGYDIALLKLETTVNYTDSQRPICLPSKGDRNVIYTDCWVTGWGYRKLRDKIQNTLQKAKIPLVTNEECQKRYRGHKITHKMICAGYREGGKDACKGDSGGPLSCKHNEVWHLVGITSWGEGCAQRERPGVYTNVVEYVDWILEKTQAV
Sequence of Coagulation Factor XIa protease (P03951 19-387 partner): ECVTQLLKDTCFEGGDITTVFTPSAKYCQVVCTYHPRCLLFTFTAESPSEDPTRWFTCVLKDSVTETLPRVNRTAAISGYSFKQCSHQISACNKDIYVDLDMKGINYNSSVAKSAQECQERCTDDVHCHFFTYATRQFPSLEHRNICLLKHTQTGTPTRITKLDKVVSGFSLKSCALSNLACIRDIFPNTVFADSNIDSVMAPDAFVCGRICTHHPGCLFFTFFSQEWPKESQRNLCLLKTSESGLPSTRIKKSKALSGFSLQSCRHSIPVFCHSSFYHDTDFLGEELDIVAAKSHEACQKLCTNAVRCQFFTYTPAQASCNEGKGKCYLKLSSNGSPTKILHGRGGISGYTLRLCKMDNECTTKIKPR

Compound | IC50
COc1cn(C(Cc2c(Cl)cccc2Cl)C(=O)Nc2ccc(C(=O)O)cc2)c(=O)cc1-c1cc(Cl)ccc1C(C)=O (centres unmarked) [Example 76, 4-(2-(4-(2-acetyl-5-chlorophenyl)-5-methoxy-2-oxopyridin-1(2H)-yl)-3-(2,6-dichlorophenyl)propanamido)benzoic acid] | 100 nM
COc1ccccc1CC(C(=O)Nc1ccc(C(=O)O)cc1)n1cc(OC)c(-c2cc(Cl)ccc2C(C)=O)cc1=O (centres unmarked) [Example 78, 4-(2-(4-(2-acetyl-5-chlorophenyl)-5-methoxy-2-oxopyridin-1(2H)-yl)-3-(2-methoxyphenyl)propanamido)benzoic acid] | 72 nM
COc1cn(C(Cc2ccccn2)C(=O)Nc2ccc(C(=O)O)cc2)c(=O)cc1-c1cc(Cl)ccc1C(C)=O (centres unmarked) [Example 79, 4-(2-(4-(2-acetyl-5-chlorophenyl)-5-methoxy-2-oxopyridin-1(2H)-yl)-3-(pyridin-2-yl)propanamido)benzoic acid] | 45 nM
COc1cn(C(Cc2cccnc2)C(=O)Nc2ccc(C(=O)O)cc2)c(=O)cc1-c1cc(Cl)ccc1C(C)=O (centres unmarked) [Example 82, 4-(2-(4-(2-acetyl-5-chlorophenyl)-5-methoxy-2-oxopyridin-1(2H)-yl)-3-(pyridin-3-yl)propanamido)benzoic acid] | 68 nM
COc1cn([C@H](Cc2cccnc2)C(=O)Nc2ccc(C(=O)O)cc2)c(=O)cc1-c1cc(Cl)ccc1C(C)=O [Example 83, (R)-4-(2-(4-(2-acetyl-5-chlorophenyl)-5-methoxy-2-oxopyridin-1 (2H)-yl)-3-(pyridin-3-yl)propanamido)benzoic acid] | > 10000 nM
COc1cn(C(Cc2ccncc2)C(=O)Nc2ccc(C(=O)O)cc2)c(=O)cc1-c1cc(Cl)ccc1C(C)=O (centres unmarked) [Example 86, 4-(2-(4-(2-acetyl-5-chlorophenyl)-5-methoxy-2-oxopyridin-1(2H)-yl)-3-(pyridin-4-yl)propanamido)benzoic acid] | 99 nM
COc1cn(C(Cc2ccccc2C#N)C(=O)Nc2ccc(C(=O)O)cc2)c(=O)cc1-c1cc(Cl)ccc1C(C)=O (centres unmarked) [Example 87, 4-(2-(4-(2-acetyl-5-chlorophenyl)-5-methoxy-2-oxopyridin-1(2H)-yl)-3-(2-cyanophenyl)propanamido)benzoic acid] | 73 nM
COc1cn(C(Cc2cccc(C#N)c2)C(=O)Nc2ccc(C(=O)O)cc2)c(=O)cc1-c1cc(Cl)ccc1C(C)=O (centres unmarked) [Example 88, 4-(2-(4-(2-acetyl-5-chlorophenyl)-5-methoxy-2-oxopyridin-1(2H)-yl)-3-(3-cyanophenyl)propanamido)benzoic acid] | 74 nM
COc1cn(C(Cc2ccc(C#N)cc2)C(=O)Nc2ccc(C(=O)O)cc2)c(=O)cc1-c1cc(Cl)ccc1C(C)=O (centres unmarked) [Example 90, 4-(2-(4-(2-acetyl-5-chlorophenyl)-5-methoxy-2-oxopyridin-1(2H)-yl)-3-(4-cyanophenyl)propanamido)benzoic acid] | 100 nM
COc1cn([C@H](Cc2ccn(C3CC3)n2)C(=O)Nc2ccc(C(=O)O)cc2)c(=O)cc1-c1cc(Cl)ccc1C(C)=O [Example 95, (R)-4-(2-(4-(2-acetyl-5-chlorophenyl)-5-methoxy-2-oxopyridin-(2H)-yl)-3-(1-cyclopropyl-1H-pyrazol-3-yl)propanamido)benzoic acid] | 7510 nM
COc1cn([C@@H](Cc2ccn(C)n2)C(=O)Nc2ccc(C(=O)O)cc2)c(=O)cc1-c1cc(Cl)ccc1C(C)=O [Example 101, (S)-4-(2-(4-(2-acetyl-5-chlorophenyl)-5-methoxy-2-oxopyridin-1(2H)-yl)-3-(1-methyl-1H-pyrazol-3-yl)propanamido)benzoic acid] | 23 nM
COc1cn([C@H](Cc2ccn(C)n2)C(=O)Nc2ccc(C(=O)O)cc2)c(=O)cc1-c1cc(Cl)ccc1C(C)=O [Example 102, (R)-4-(2-(4-(2-acetyl-5-chlorophenyl)-5-methoxy-2-oxopyridin-1(2H)-yl)-3-(1-methyl-1H-pyrazol-3-yl)propanamido)benzoic acid] | 8210 nM
COc1cn(C(Cc2cnn(C)c2)C(=O)Nc2ccc(C(=O)O)cc2)c(=O)cc1-c1cc(Cl)ccc1C(C)=O (centres unmarked) [Example 103, 4-(2-(4-(2-acetyl-5-chlorophenyl)-5-methoxy-2-oxopyridin-1(2H)-yl)-3-(1-methyl-1H-pyrazol-4-yl)propanamido)benzoic acid] | 70 nM
COc1cn(C(CCOC(C)(C)C)C(=O)Nc2ccc(C(=O)O)cc2)c(=O)cc1-c1cc(Cl)ccc1C(C)=O (centres unmarked) [Example 110, 4-(2-(4-(2-acetyl-5-chlorophenyl)-5-methoxy-2-oxopyridin-1(2H)-yl)-4-(tert-butoxy)butanamido)benzoic acid] | 53 nM
CCC(=O)c1ccc(Cl)cc1-c1cc(=O)n(C(CCOC(C)(C)C)C(=O)Nc2ccc3nccnc3c2)cc1OC (centres unmarked) [Example 113, 4-(tert-butoxy)-2-(4-(5-chloro-2-propionylphenyl)-5-methoxy-2-oxopyridin-(2H)-yl)-N-(quinoxalin-6-yl)butanamide] | 33 nM
CCC(=O)c1ccc(Cl)cc1-c1cc(=O)n([C@H](CCOC(C)(C)C)C(=O)Nc2ccc3nccnc3c2)cc1OC [Example 115, (R)-4-(tert-butoxy)-2-(4-(5-chloro-2-propionylphenyl)-5-methoxy-2-oxopyridin-1(2H)-yl)-N-(quinoxalin-6-yl)butanamide] | > 10000 nM
CCC(=O)c1ccc(Cl)cc1-c1cc(=O)n(C(CCOC(C)(C)C)C(=O)Nc2ccc3[nH]c(C(=O)O)cc3c2)cc1OC (centres unmarked) [Example 119, 5-(4-(tert-butoxy)-2-(4-(5-chloro-2-propionylphenyl)-5-methoxy-2-oxopyridin-1(2H)-yl)butanamido)-1H-indole-2-carboxylic acid] | 45 nM
COc1cn(C(CCOC(C)(C)C)C(=O)Nc2ccc(C(=O)O)cc2)c(=O)cc1-c1c(C(C)=O)ccc(Cl)c1F (centres unmarked) [Example 120, 44-(2-(4-(6-acetyl-3-chloro-2-fluorophenyl)-5-methoxy-2-oxopyridin-1(2H)-yl)-4-(tert-butoxy)butanamido)benzoic acid] | 49 nM
CCC(=O)c1ccc(Cl)cc1-c1cc(=O)n(C(CCOC(C)(C)C)C(=O)Nc2ccc3ncncc3c2)cc1OC (centres unmarked) [Example 121, 4-(tert-butoxy)-2-(4-(5-chloro-2-propionylphenyl)-5-methoxy-2-oxopyridin-1(2H)-yl)-N-(quinazolin-6-yl)butanamide] | 67 nM
COc1cn([C@@H](CCOC(C)(C)C)C(=O)Nc2ccc(C(N)=O)cc2)c(=O)cc1-c1cc(Cl)ccc1C(C)=O [Example 122, (S)-4-(2-(4-(2-acetyl-5-chlorophenyl)-5-methoxy-2-oxopyridin-1(2H)-yl)-4-(tert-butoxy)butanamido)benzamide] | 100 nM
CNC(=O)c1ccc(NC(=O)[C@H](CCOC(C)(C)C)n2cc(OC)c(-c3cc(Cl)ccc3C(C)=O)cc2=O)cc1 [Example 123, (S)-4-(2-(4-(2-acetyl-5-chlorophenyl)-5-methoxy-2-oxopyridin-1(2H)-yl)-4-(tert-butoxy)butanamido)-N-methylbenzamide] | 100 nM
CCC(=O)c1ccc(Cl)cc1-c1cc(=O)n(C(CCOC(C)(C)C)C(=O)Nc2ccc3nc(C)c(C)nc3c2)cc1OC (centres unmarked) [Example 124, 4-(tert-butoxy)-2-(4-(5-chloro-2-propionylphenyl)-5-methoxy-2-oxopyridin-(2H)-yl)-N-(2,3-dimethylquinoxalin-6-yl)butanamide] | 100 nM
CCC(=O)c1ccc(Cl)cc1-c1cc(=O)n(C(CCOC(C)(C)C)C(=O)Nc2ccc3nn(C)cc3c2)cc1OC (centres unmarked) [Example 141] | 66 nM
